# In ChEMBL document CHEMBL5150039 (Bioorg Med Chem, 2022):
# Tests used:
# [1] = target: T1, Solute carrier family 22 member 12 (Homo sapiens, UniProt Q96S37); settings: HEK293, human, 8 min, read-out: INH
# T1 sequence (Q96S37 whole entry): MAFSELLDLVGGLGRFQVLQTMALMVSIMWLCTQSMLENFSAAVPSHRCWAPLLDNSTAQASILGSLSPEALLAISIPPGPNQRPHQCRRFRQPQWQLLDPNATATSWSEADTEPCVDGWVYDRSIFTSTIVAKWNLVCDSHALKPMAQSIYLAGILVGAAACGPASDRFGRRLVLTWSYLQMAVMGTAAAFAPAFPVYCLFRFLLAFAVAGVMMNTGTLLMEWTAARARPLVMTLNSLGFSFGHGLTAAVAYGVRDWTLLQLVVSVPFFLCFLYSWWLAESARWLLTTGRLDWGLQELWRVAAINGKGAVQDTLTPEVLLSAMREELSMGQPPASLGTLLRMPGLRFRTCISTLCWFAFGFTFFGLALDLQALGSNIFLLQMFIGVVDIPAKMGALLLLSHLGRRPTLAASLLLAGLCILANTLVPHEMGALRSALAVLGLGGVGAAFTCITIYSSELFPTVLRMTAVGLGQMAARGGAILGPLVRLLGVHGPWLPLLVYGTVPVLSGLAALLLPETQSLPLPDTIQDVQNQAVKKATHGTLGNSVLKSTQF
# Description: Inhibition of URAT1 in human HEK293 cells assessed as inhibition of uric acid uptake at 100 nM incubated for 8 mins by Microbeta scintillation counting analysis
# [2] = target: T1, Solute carrier family 22 member 12; settings: HEK293, human, 8 min, read-out: INH; remark: listed apart in the source
# Description: Inhibition of URAT1 in human HEK293 cells assessed as inhibition of uric acid uptake at 1000 nM incubated for 8 mins by Microbeta scintillation counting analysis
# [3] = target: T1, Solute carrier family 22 member 12; settings: HEK293, human, 8 min, read-out: INH; remark: listed apart in the source
# Bile acid receptor = target: T2, Bile acid receptor (Homo sapiens, UniProt Q96RI1); test: Agonist activity at FXR (unknown origin) expressed in human HepG2 cells co-transfected with human RXR incubated for 24 hrs by cell-based luciferase transactivation assay
# T2 sequence (Q96RI1 whole entry): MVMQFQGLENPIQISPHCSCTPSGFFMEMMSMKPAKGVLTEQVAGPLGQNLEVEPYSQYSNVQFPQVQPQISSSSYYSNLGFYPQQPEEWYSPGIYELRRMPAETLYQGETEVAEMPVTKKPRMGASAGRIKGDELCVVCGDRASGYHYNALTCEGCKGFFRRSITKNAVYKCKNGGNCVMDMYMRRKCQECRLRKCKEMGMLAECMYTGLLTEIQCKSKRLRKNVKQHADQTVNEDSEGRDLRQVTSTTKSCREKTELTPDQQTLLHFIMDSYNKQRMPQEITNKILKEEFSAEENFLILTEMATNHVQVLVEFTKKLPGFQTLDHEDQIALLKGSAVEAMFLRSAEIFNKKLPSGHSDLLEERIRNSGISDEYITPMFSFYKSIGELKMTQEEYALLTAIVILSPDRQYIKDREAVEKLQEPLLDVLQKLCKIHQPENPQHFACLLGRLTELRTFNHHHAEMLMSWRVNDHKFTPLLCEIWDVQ
SMILES,inhibition at 0.1 µM [1] [%],inhibition at 1 µM [2] [%],inhibition at 0.3 µM [3] [%],EC50 (Bile acid receptor) [µM]
CCc1oc2ccccc2c1C(=O)c1ccc(OCc2cccc(C(=O)O)c2)cc1,1,12,3,15.6
CCc1oc2ccccc2c1C(=O)c1cc(Br)c(OCCCC(=O)O)c(Br)c1,6,45,23,
CCc1oc2ccccc2c1C(=O)c1cc(Br)c(O)c(Br)c1 [BENZBROMARONE],12,72,31,
CCc1oc2ccccc2c1C(=O)c1cc(Br)c(OCc2ccc(C(=O)O)cc2)c(Br)c1,1,23,8,10.3
CCc1oc2ccccc2c1C(=O)c1cc(Br)c(OCc2cccc(OCC(=O)O)c2)c(Br)c1,3,31,18,17.8
